Values after ≈ are worked out from the molar mass of the structure shown.

The test system of one test is Alcaligenes faecalis. Briefly: In vitro antibacterial activity of compound was measured against gram negative Alcaligenes faecalis 140001. In kind it is functional.
The next test deals with Shigella sonnei. Description: In vitro antibacterial activity of compound was measured against gram negative Shigella sonnei. It is filed as functional.
The next test relates to Bacteroides fragilis. Briefly: In vitro antibacterial activity of compound was measured against gram negative Bacteroides fragilis ATCC 25285. It is filed as functional.
Test [1] relates to Escherichia coli. Description: In vitro antibacterial activity of compound was measured against gram negative Escherichia coli K12. In kind it is functional.
The subject of the next test is Salmonella typhimurium. Description: In vitro antibacterial activity of compound was measured against gram negative Salmonella Typhimurium 51. In kind it is functional, Salmonella enterica subsp. enterica serovar Typhimurium. The settings on record: Salmonella enterica.
The next test deals with Enterococcus faecalis. Description: In vitro antibacterial activity of compound was measured against gram positive Streptococcus faecalis. It is filed as functional.
In test [2] the test system is Streptococcus pyogenes. Description: In vitro antibacterial activity of compound was measured against gram positive Streptococcus pyogenes A 115 ROBB. In kind it is functional.
A further test relates to Proteus inconstans. Description: In vitro antibacterial activity of compound was measured against gram negative Proteus inconstans NCTC 8055. It is filed as functional. Conditions: Providencia alcalifaciens.
Test [3] deals with Mycobacterium tuberculosis. Briefly: In vitro antibacterial activity of compound was measured against gram positive Mycobacterium tuberculosis H37Rv (human). It is filed as functional.
The test system of a further test is Klebsiella pneumoniae. Briefly: In vitro antibacterial activity of compound was measured against gram negative Klebsiella pneumoniae ATCC 10031. It is filed as functional.
Test [4] concerns Mycobacterium tuberculosis. Briefly: In vitro antibacterial activity of compound was measured against gram positive Mycobacterium tuberculosis Ravenel(bovin). It is filed as functional.
Test [5] deals with Escherichia coli. Briefly: In vitro antibacterial activity of compound was measured against gram negative Escherichia coli 6R. It is filed as functional.
The next test deals with Bacillus subtilis. Briefly: In vitro antibacterial activity of compound was measured against gram positive Bacillus subtilis ATCC 6633. It is filed as functional.
Test [6] has as its system Bordetella bronchiseptica. Briefly: In vitro antibacterial activity of compound was measured against gram negative Bordetella bronchiseptica ATCC 4617. It is filed as functional.
The test system of test [7] is Streptococcus pyogenes. Briefly: In vitro antibacterial activity of compound was measured against gram positive Streptococcus pyogenes A 118. It is filed as functional.
The subject of another test is Serratia marcescens. Briefly: In vitro antibacterial activity of compound was measured against gram negative Serratia marcescens. It is filed as functional.
The subject of test [8] is Acinetobacter calcoaceticus subsp. anitratus. Description: In vitro antibacterial activity of compound was measured against gram negative Acinetobacter anitratus 150001. In kind it is functional.
The next test deals with Pseudomonas aeruginosa. Briefly: In vitro antibacterial activity of compound was measured against gram negative Pseudomonas pyocyanea NCTC 10490. It is filed as functional, pseudomona pyocyanea.
The subject of the next test is Proteus vulgaris. Briefly: In vitro antibacterial activity of compound was measured against gram negative Proteus vulgaris XL. It is filed as functional.
Test [9] relates to Staphylococcus aureus. Briefly: In vitro antibacterial activity of compound was measured against gram positive Staphylococcus aureus SMITH. It is filed as functional.
The subject of test [10] is Staphylococcus aureus. Description: In vitro antibacterial activity of compound was measured against gram positive Staphylococcus aureus 1110 pen.rez. It is filed as functional.
For another test, the system named is Clostridium perfringens. Briefly: In vitro antibacterial activity of compound was measured against gram positive Clostridium perfringens 70500. In kind it is functional.
Another test has as its system Streptococcus pneumoniae. Briefly: In vitro antibacterial activity of compound was measured against gram positive Streptococcus pneumoniae. In kind it is functional.

Turning to `CN1CCN(c2cc3c(cc2F)c(=O)c(C(=O)O)cn3N2C3CCCCC32)CC1` (stereo unspecified), the MIC with Alcaligenes faecalis was 100 µg/mL (≈ 250 µM); with Shigella sonnei, 12.5 µg/mL (≈ 31.2 µM); in the test on Bacteroides fragilis it was 25 µg/mL (≈ 62.4 µM); in the test with Escherichia coli [1], 50 µg/mL (≈ 125 µM); in the test with Salmonella typhimurium, 25 µg/mL (≈ 62.4 µM); against Enterococcus faecalis it was greater than 100 µg/mL. Moreover, the MIC in the test on Streptococcus pyogenes [2] was determined as 100 µg/mL (≈ 250 µM); against Proteus inconstans, 100 µg/mL (≈ 250 µM); in test [3], 6.2 µg/mL (≈ 15.5 µM); against Klebsiella pneumoniae, 0.8 µg/mL (≈ 2 µM); in test [4] it was 3.1 µg/mL (≈ 7.74 µM); in the test with Escherichia coli [5], 100 µg/mL (≈ 250 µM). Moreover, the MIC against Bacillus subtilis is 3.1 µg/mL (≈ 7.74 µM); in test [6], 25 µg/mL (≈ 62.4 µM); with Streptococcus pyogenes [7], 100 µg/mL (≈ 250 µM); with Serratia marcescens, 50 µg/mL (≈ 125 µM); in test [8] it was 12.5 µg/mL (≈ 31.2 µM); with Pseudomonas aeruginosa it was 100 µg/mL (≈ 250 µM). Also, the MIC was 50 µg/mL (≈ 125 µM) against Proteus vulgaris; 50 µg/mL (≈ 125 µM) with Staphylococcus aureus [9]; 50 µg/mL (≈ 125 µM) against Staphylococcus aureus [10]; 100 µg/mL (≈ 250 µM) against Clostridium perfringens; 100 µg/mL (≈ 250 µM) with Streptococcus pneumoniae.
For `CN1CCN(c2cc3c(cc2F)c(=O)c(C(=O)O)cn3N2CC2c2cccc(C(F)(F)F)c2)CC1` (stereo unspecified), the minimum inhibitory concentration (MIC) against Alcaligenes faecalis worked out at 100 µg/mL (≈ 204 µM); with Shigella sonnei, 25 µg/mL (≈ 51 µM); against Bacteroides fragilis, 50 µg/mL (≈ 102 µM); in the test with Escherichia coli [1], 100 µg/mL (≈ 204 µM); in the test with Salmonella typhimurium, 100 µg/mL (≈ 204 µM); in the test with Enterococcus faecalis it was 25 µg/mL (≈ 51 µM). Further, the MIC against Streptococcus pyogenes [2] was determined as 50 µg/mL (≈ 102 µM); in the test with Proteus inconstans it was 100 µg/mL (≈ 204 µM); in [3] it was 12.5 µg/mL (≈ 25.5 µM); in the test with Klebsiella pneumoniae it was 12.5 µg/mL (≈ 25.5 µM); in [4], 100 µg/mL (≈ 204 µM); against Escherichia coli [5], 100 µg/mL (≈ 204 µM). Besides, the MIC against Bacillus subtilis is 10 µg/mL (≈ 20.4 µM); in test [6] it was 50 µg/mL (≈ 102 µM); against Streptococcus pyogenes [7], 25 µg/mL (≈ 51 µM); against Serratia marcescens, 100 µg/mL (≈ 204 µM); in test [8], 100 µg/mL (≈ 204 µM); in the test on Pseudomonas aeruginosa, 100 µg/mL (≈ 204 µM). For the same molecule, the MIC in the test with Proteus vulgaris turned out to be 100 µg/mL (≈ 204 µM); against Staphylococcus aureus [9], 25 µg/mL (≈ 51 µM); in the test on Staphylococcus aureus [10] it was 25 µg/mL (≈ 51 µM); in the test on Clostridium perfringens, 12.5 µg/mL (≈ 25.5 µM); against Streptococcus pneumoniae it was 12.5 µg/mL (≈ 25.5 µM).
Regarding `CN1CCN(c2c(F)cc3c(=O)c(C(=O)O)cn(N4CC4c4ccccn4)c3c2F)CC1` (stereo unspecified), the MIC in the test with Alcaligenes faecalis was greater than 100 µg/mL; in the test with Shigella sonnei, 6.2 µg/mL (≈ 14 µM); against Bacteroides fragilis, greater than 100 µg/mL; against Escherichia coli [1], 50 µg/mL (≈ 113 µM); in the test with Salmonella typhimurium, 25 µg/mL (≈ 56.6 µM); against Enterococcus faecalis, greater than 100 µg/mL. Also, the MIC against Streptococcus pyogenes [2] was greater than 100 µg/mL; against Proteus inconstans, 50 µg/mL (≈ 113 µM); in [3] it was 100 µg/mL (≈ 227 µM); with Klebsiella pneumoniae, 12.5 µg/mL (≈ 28.3 µM); in test [4], 50 µg/mL (≈ 113 µM); in the test with Escherichia coli [5], greater than 100 µg/mL. Also, the MIC against Bacillus subtilis is greater than 100 µg/mL; in [6], greater than 100 µg/mL; against Streptococcus pyogenes [7], greater than 100 µg/mL; in the test with Serratia marcescens, 25 µg/mL (≈ 56.6 µM); in test [8], greater than 100 µg/mL; in the test on Pseudomonas aeruginosa it was greater than 100 µg/mL. The MIC in the test with Proteus vulgaris was 25 µg/mL (≈ 56.6 µM); against Staphylococcus aureus [9] it was greater than 100 µg/mL; in the test with Staphylococcus aureus [10], greater than 100 µg/mL; against Clostridium perfringens it was 100 µg/mL (≈ 227 µM); in the test with Streptococcus pneumoniae it was 100 µg/mL (≈ 227 µM).
For the molecule `CN1CCN(c2cc3c(cc2F)c(=O)c(C(=O)O)cn3N2CC2c2ccccc2)CC1` (stereo unspecified), the MIC in the test with Alcaligenes faecalis is 100 µg/mL (≈ 237 µM); in the test with Shigella sonnei, 6.2 µg/mL (≈ 14.7 µM); with Bacteroides fragilis it was 6.2 µg/mL (≈ 14.7 µM); with Escherichia coli [1] it was 50 µg/mL (≈ 118 µM); in the test on Salmonella typhimurium, 50 µg/mL (≈ 118 µM); in the test on Enterococcus faecalis, 25 µg/mL (≈ 59.2 µM). For the same molecule, the MIC in the test with Streptococcus pyogenes [2] was 10 µg/mL (≈ 23.7 µM); in the test on Proteus inconstans, 100 µg/mL (≈ 237 µM); in test [3], 6.2 µg/mL (≈ 14.7 µM); against Klebsiella pneumoniae it was 3.1 µg/mL (≈ 7.34 µM); in test [4], 3.1 µg/mL (≈ 7.34 µM); against Escherichia coli [5], 100 µg/mL (≈ 237 µM). The MIC against Bacillus subtilis was 6.2 µg/mL (≈ 14.7 µM); in test [6] it was 6.2 µg/mL (≈ 14.7 µM); in the test with Streptococcus pyogenes [7], 10 µg/mL (≈ 23.7 µM); in the test with Serratia marcescens, 100 µg/mL (≈ 237 µM); in [8], 50 µg/mL (≈ 118 µM); against Pseudomonas aeruginosa, 100 µg/mL (≈ 237 µM). Moreover, the minimal inhibitory concentration (MIC) against Proteus vulgaris amounted to 50 µg/mL (≈ 118 µM); with Staphylococcus aureus [9], 12.5 µg/mL (≈ 29.6 µM); with Staphylococcus aureus [10] it was 25 µg/mL (≈ 59.2 µM); in the test with Clostridium perfringens, 6.2 µg/mL (≈ 14.7 µM); in the test on Streptococcus pneumoniae, 5 µg/mL (≈ 11.8 µM).
Regarding `O=C(O)c1cn(C2CC2)c2cc(N3CCNCC3)c(F)cc2c1=O` [CIPROFLOXACIN], the MIC with Alcaligenes faecalis turned out to be 1 µg/mL (≈ 3.02 µM); against Shigella sonnei it was 0.015 µg/mL (≈ 0.0453 µM); in the test with Bacteroides fragilis, 6.2 µg/mL (≈ 18.7 µM); in the test on Salmonella typhimurium it was 0.015 µg/mL (≈ 0.0453 µM); in the test with Enterococcus faecalis it was 1 µg/mL (≈ 3.02 µM); in the test with Streptococcus pyogenes [2] it was 1 µg/mL (≈ 3.02 µM). The MIC against Proteus inconstans was determined as 0.03 µg/mL (≈ 0.0905 µM); in test [3], 0.2 µg/mL (≈ 0.604 µM); in the test on Klebsiella pneumoniae it was 0.008 µg/mL (≈ 0.0241 µM); in test [4] it was 0.05 µg/mL (≈ 0.151 µM); against Bacillus subtilis, 0.03 µg/mL (≈ 0.0905 µM); in [6], 0.25 µg/mL (≈ 0.754 µM). Besides, the MIC is 1 µg/mL (≈ 3.02 µM) in the test with Streptococcus pyogenes [7]; 0.03 µg/mL (≈ 0.0905 µM) in the test on Serratia marcescens; 0.25 µg/mL (≈ 0.754 µM) in [8]; 0.008 µg/mL (≈ 0.0241 µM) against Proteus vulgaris; 0.12 µg/mL (≈ 0.362 µM) with Staphylococcus aureus [9]; 0.25 µg/mL (≈ 0.754 µM) against Staphylococcus aureus [10]. Moreover, 1 µg/mL (≈ 3.02 µM) was the least that counted as inhibitory with Streptococcus pneumoniae (MIC).

One may read the MIC as the lowest concentration found to suppress growth.

The values above are taken from ChEMBL document CHEMBL1129105, “Synthesis and biological evaluation of N-(1-aziridino)-6-fluoro-quinolone-3-carboxylic acids” (1996).
